Data reported in patent US11053226B2, “KRAS G12C inhibitors and methods of using the same” (Amgen Inc., priority 2018, dated 2021).
Read-outs that look alike come from different tables or passages of the source.

Target: GDP-bound KRAS protein (aa 1-169), containing both G12C and C118A amino acid substitutions (Homo sapiens (Human), UniProt P01116, C118A/G12C)
Assay: Coupled Nucleotide Exchange Assay
Format: biochemical
Method: For compounds in Table 9, the following assay conditions were employed:
Coupled Nucleotide Exchange Assay:
The assay plates were then read on a PerkinElmer EnVision Multilabel Reader, using AlphaScreen® technology, and data were analyzed using a 4-parameter logistic model to calculate IC50 values.

[1] = second Coupled Exchange column, read-out: Coupled Exchange IC50
[2] = third Coupled Exchange column, compound pre-incubation probably 20 hours (rest of head not shown; b435 lists 5 min, 2 hours or 20 hours), read-out: Coupled Exchange IC50
[3] = read-out: Coupled Exchange IC50 (2 h), 2 h compound pre-incubation
[4] = read-out: Coupled Exchange IC50 (20 h), 20 h compound pre-incubation
[5] = first Coupled Exchange column, compound pre-incubation probably 5 min (rest of head not shown; b435 lists 5 min, 2 hours or 20 hours), read-out: Coupled Exchange IC50

Chain of GDP-bound KRAS protein (aa 1-169), containing both G12C and C118A amino acid substitutions (P01116 other isoform, or with tags, fused parts or gaps G12C/C118A): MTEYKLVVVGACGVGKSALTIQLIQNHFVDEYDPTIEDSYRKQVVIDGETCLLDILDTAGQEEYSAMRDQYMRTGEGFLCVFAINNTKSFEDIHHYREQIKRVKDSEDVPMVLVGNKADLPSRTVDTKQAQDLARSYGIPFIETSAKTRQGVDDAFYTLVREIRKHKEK

Row | SMILES | IC50 [3] [µM] | IC50 [4] [µM] | IC50 [5] [µM] | further results
1 | C=CC(=O)N1CC(NC(=O)Cn2c(C)c(-c3ncccc3Cl)c3cc(Cl)ccc32)C1 [Example 306] | – | – | – | IC50 [1]: 9.53 µM; IC50 [2]: 1.64 µM
2 | C=CC(=O)N1CC(NC(=O)Cn2cc(C(C)(O)C(=O)NCc3ccccc3)c3cc(Br)ccc32)C1 (stereo not drawn) [Example 253] | 19.4 | 2.31 | – | –
3 | C=CC(=O)N1CC(NC(=O)Cn2c3ccccc3c3ccccc32)C1 [Example 195] | > 250 | 33.5 | – | –
4 | C=CC(=O)N1CC(NC(=O)Cn2ccc3cccc(CC#N)c32)C1 [Example 360] | – | – | > 250 | IC50 [2]: > 250 µM
5 | C=CC(=O)N1CC(N(C)C(=O)Cn2cc(C)c3cc(Br)ccc32)C1 [Example 355] | – | – | 155 | IC50 [2]: 1.7 µM
6 | C=CC(=O)N1CC(NC(=O)Cn2cc(-c3cc[nH]n3)c3ccc(-c4ccccc4Cl)cc32)C1 [Example 229] | 18.9 | 5.4 | – | –
7 | C=CC(=O)N1CC(N(C)C(=O)Cn2c(C)cc3cc(Br)ccc32)C1 [Example 348] | – | – | 235 | IC50 [2]: 1.22 µM
8 | C=CC(=O)N1CC(NC(=O)Cn2cc(CC(=O)N3CCc4cn[nH]c4C3)c3cc(Br)ccc32)C1 [Example 332] | – | – | 43.3 | –
9 | C=CC(=O)N1CC(NC(=O)Cn2cc(-c3cccnc3)c3cc(-c4cccnc4)ccc32)C1 [Example 207] | 164 | 18.2 | – | –
10 | C=CC(=O)N1C[C@H](N(C)C(=O)Cn2ccc3cc(Br)ccc32)[C@@H]1C [Example 364] | – | – | > 250 | IC50 [2]: 8.14 µM
11 | C=CC(=O)N1CC(NC(=O)Cn2c(C)c(-c3cnccc3C#N)c3cc(Cl)ccc32)C1 [Example 314] | – | – | – | IC50 [1]: 11.7 µM
12 | C=CC(=O)N1CC(NC(=O)Cn2c3ccc(Br)cc3c3cc(Br)ccc32)C1 [Example 193] | > 250 | 0.39 | – | –
13 | C=CC(=O)N1CC(NC(=O)Cn2cc(CC(=O)N3CC4CCC3C4)c3cc(Br)ccc32)C1 (stereo not drawn) [Example 333] | – | – | 80.1 | –
14 | C=CC(=O)N1CC(NC(=O)Cn2c(-c3ccccc3)cc3cc(Br)ccc32)C1 [Example 243] | 18.2 | 2.82 | – | –
15 | C=CC(=O)N1CC(NC(=O)Cn2c(C(=O)NCc3ccccc3)c(I)c3cc(Br)ccc32)C1 [Example 192] | 107 | 61.7 | – | –
16 | C=CC(=O)N1CC(NC(=O)Cn2ccc3cc(C4CC4)ccc32)C1 [Example 217] | > 250 | > 125 | – | –
17 | C=CC(=O)N1CC(NC(=O)Cn2ccc3c(C)c(Br)ccc32)C1 [Example 349] | – | – | > 250 | IC50 [2]: 3.21 µM

Row | SMILES | IC50 [3] [µM] | IC50 [4] [µM] | IC50 [5] [µM] | further results
18 | C=CC(=O)N1CC(NC(=O)Cn2cc(C)c3cc(Br)ccc32)C1 [Example 194] | 30.1 | 2.23 | – | IC50 (read-out: Coupled Exchange IC50 (5 min), 5 min compound pre-incubation): 151 µM
19 | C=CC(=O)N1CC(NC(=O)Cn2c(C)c(-c3cnccc3C3=CCC(C)CC3)c3cc(Cl)cc(C)c32)C1 (stereo not drawn) [Example 334] | – | – | 0.37 | –
20 | C=CC(=O)N1CC(NC(=O)Cn2c(C)c(C(=O)OC(C)(C)C)c3cc([N+](=O)[O-])ccc32)C1 [Example 278] | – | – | – | IC50 [1]: 105 µM; IC50 [2]: > 250 µM
21 | C=CC(=O)N1CC(NC(=O)Cn2c3c(c4cc(Br)ccc42)CCN(Cc2ccccc2)C3)C1 [Example 239] | > 250 | 44 | – | –
22 | C=CC(=O)N1CC(NC(=O)Cn2cc(-c3c(F)ccc4cn[nH]c34)c3cc(-c4c(F)ccc5cn[nH]c45)ccc32)C1 [Example 208] | 20.5 | 13 | – | –
23 | C=CC(=O)N1CC(N(C)C(=O)Cn2ccc3cc(Br)cc(C)c32)C1 [Example 351] | – | – | > 250 | IC50 [2]: 3.32 µM
24 | C=CC(=O)N1CC(NC(=O)Cn2ccc3cc(Br)ccc32)C1C (stereo not drawn) [Example 361] | – | – | 231 | IC50 [2]: 3.04 µM
25 | C=CC(=O)N1CC(NC(=O)Cn2c3c(c4cc(Br)ccc42)C=NCC3)C1 [Example 238] | 73.1 | 9.89 | – | –
26 | C=CC(=O)N1CC(N(C)C(=O)Cn2c3ccccc3c3cc(Br)ccc32)C1 [Example 261] | 15.4 | 2.17 | – | –
27 | C=CC(=O)N1CC(NC(=O)Cn2cc(-c3cocn3)c3ccc(-c4ccccc4Cl)cc32)C1 [Example 219] | > 250 | 2.87 | – | –
28 | C=CC(=O)N1CC(NC(=O)Cn2ccc3cc(F)ccc32)C1 [Example 198] | > 250 | > 250 | – | –
29 | C=CC(=O)N1CC(NC(=O)Cn2ccc3c(Cl)cccc32)C1 [Example 199] | > 250 | 21.6 | – | –
30 | C=CC(=O)N1CC(NC(=O)Cn2c(C=O)cc3cc(Br)ccc32)C1 [Example 185] | > 250 | 15.9 | – | –
31 | C=CC(=O)N1CC(NC(=O)Cn2cc([N+](=O)[O-])c3cc(Cl)ccc32)C1 [Example 240] | 13.1 | 1.33 | – | –
32 | C=CC(=O)N1CC(NC(=O)Cn2ccc3cc(-c4ccccc4)ccc32)C1 [Example 237] | > 250 | > 250 | – | –
33 | C=CC(=O)N1CC(NC(=O)Cn2c(-c3ccncc3)cc3ccccc32)C1 [Example 215] | > 250 | > 250 | – | –
